According to patent publication US9334289B2, “Cephem compound having catechol or pseudo-catechol structure” (SHIONOGI & CO., LTD., priority 2011, dated 2016):
Values after ≈ are worked out from the molar mass of the structure shown.

What was measured:
Format in all cases: cell-based
P. aeruginosa SR24 = assay: MIC, CLSI broth microdilution, Test Example 1; settings: Ceftazidime resistance strain; cation-adjusted Mueller Hinton broth containing human apo-transferrin; 5×10^5 cfu/mL
A. baumannii SR27323 = assay: MIC, CLSI broth microdilution, Test Example 1; settings: OXA-23, OXA-58 carbapenemase producing strain; cation-adjusted Mueller Hinton broth containing human apo-transferrin; 5×10^5 cfu/mL
Procedure: (§1) Measurement of Minimum Inhibitory Concentration (MIC: μg/mL) was conducted according to CLSI (Clinical and Laboratory Standards Institute) method, and the amount of bacteria for inoculation was 5×10^5 cfu/mL, and cation-adjusted Mueller Hinton broth containing human apo-transferrin was used as a test medium, and the experiment was conducted using broth microdilution method. The bacteria used are listed below.

E. coli ATCCBAA-199 = assay: MIC, CLSI broth microdilution, Test Example 1; settings: SHV-3 ESBL producing strain; cation-adjusted Mueller Hinton broth containing human apo-transferrin; 5×10^5 cfu/mL
Procedure: as §1

E. coli ATCCBAA-200 [1] = assay: MIC, CLSI broth microdilution, Test Example 1; settings: SHV-4 ESBL producing strain; cation-adjusted Mueller Hinton broth containing human apo-transferrin; 5×10^5 cfu/mL
Procedure: as §1

[2] = system: K. pneumoniae ATCCBAA-1705; assay: MIC, CLSI broth microdilution, Test Example 1; settings: KPC-2 carbapenemase producing strain; cation-adjusted Mueller Hinton broth containing human apo-transferrin; 5×10^5 cfu/mL
Procedure: as §1

P. aeruginosa SR24837 = assay: MIC, CLSI broth microdilution, Test Example 1; settings: PER-1 ESBL producing strain; cation-adjusted Mueller Hinton broth containing human apo-transferrin; 5×10^5 cfu/mL
Procedure: as §1

P. aeruginosa SR27060 = assay: MIC, CLSI broth microdilution, Test Example 1; settings: IMP-1 MBL producing strain (carbapenem resistance strain); cation-adjusted Mueller Hinton broth containing human apo-transferrin; 5×10^5 cfu/mL
Procedure: as §1

A. baumannii SR01331 = assay: MIC, CLSI broth microdilution, Test Example 2; settings: PER-1, OXA-23.51 ESBL- & OXA-type carbapenemase producing strain, cation-adjusted Iso-Sensitest broth containing human Apo-transferrin, 5×10^5 cfu/mL; for MIC: Acinetobacter baumannii, SR01331, read-out: Minimum Inhibitory Concentration (MIC) A. baumannii SR01331
Outline: (§2)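 Bacteria were inoculated at 5×10^5 cfu/mL into cation-adjusted Iso-Sensitest broth containing human Apo-transferrin. MICs (μg/mL) were then determined by broth microdilution following the CLSI method.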

E. cloacae NCTC13464 = assay: MIC, CLSI broth microdilution, Test Example 2; settings: CTX-M group 9 ESBL producing strain, cation-adjusted Iso-Sensitest broth containing human Apo-transferrin, 5×10^5 cfu/mL; for MIC: Enterobacter cloacae, NCTC13464, read-out: Minimum Inhibitory Concentration (MIC) E. cloacae NCTC 13464
Outline: as §2

E. coli ATCCBAA-196 = assay: MIC, CLSI broth microdilution, Test Example 2; settings: TEM-10 ESBL producing strain, cation-adjusted Iso-Sensitest broth containing human Apo-transferrin, 5×10^5 cfu/mL; for MIC: Escherichia coli, ATCCBAA196, read-out: Minimum Inhibitory Concentration (MIC) E. coli ATCC BAA-196
Outline: as §2

E. coli ATCCBAA-200 [3] = assay: MIC, CLSI broth microdilution, Test Example 2; settings: SHV-4 ESBL producing strain, cation-adjusted Iso-Sensitest broth containing human Apo-transferrin, 5×10^5 cfu/mL; for MIC: Escherichia coli, ATCCBAA200, read-out: Minimum Inhibitory Concentration (MIC) E. coli ATCC BAA-200
Outline: as §2

E. coli SR01337 = assay: MIC, CLSI broth microdilution, Test Example 2; settings: TEM-1 ESBL producing strain, cation-adjusted Iso-Sensitest broth containing human Apo-transferrin, 5×10^5 cfu/mL; for MIC: Escherichia coli, SR01337, read-out: Minimum Inhibitory Concentration (MIC) E. coli SR01337
Outline: as §2

K. pneumoniae ATCC700603 = assay: MIC, CLSI broth microdilution, Test Example 2; settings: SHV18 ESBL producing strain, cation-adjusted Iso-Sensitest broth containing human Apo-transferrin, 5×10^5 cfu/mL; for MIC: Klebsiella pneumoniae, ATCC700603, read-out: Minimum Inhibitory Concentration (MIC) K. pneumoniae ATCC 700603
Outline: as §2

P. aeruginosa SR01332 = assay: MIC, CLSI broth microdilution, Test Example 2; settings: VIM-11 MBL producing strain (carbapenem resistance strain), cation-adjusted Iso-Sensitest broth containing human Apo-transferrin, 5×10^5 cfu/mL; for MIC: Pseudomonas aeruginosa, SR01332, read-out: Minimum Inhibitory Concentration (MIC) P. aeruginosa SR01332
Outline: as §2

P. aeruginosa SR01335 = assay: MIC, CLSI broth microdilution, Test Example 2; settings: VIM-1 like MBL producing strain (carbapenem resistance strain), cation-adjusted Iso-Sensitest broth containing human Apo-transferrin, 5×10^5 cfu/mL; for MIC: Pseudomonas aeruginosa, SR01335, read-out: Minimum Inhibitory Concentration (MIC) P. aeruginosa SR01335
Outline: as §2

SMILES	MIC (A. baumannii SR01331) [µg/mL]	MIC (E. cloacae NCTC13464) [µg/mL]	MIC (E. coli ATCCBAA-196) [µg/mL]	MIC (E. coli ATCCBAA-200 [3]) [µg/mL]	MIC (E. coli SR01337) [µg/mL]	MIC (K. pneumoniae ATCC700603) [µg/mL]	MIC (P. aeruginosa SR01332) [µg/mL]	MIC (P. aeruginosa SR01335) [µg/mL]	also measured
C[N+](C)(CCNC(=O)c1ccc(O)c(O)c1Cl)CC1=C(c2nnn[n-]2)N2C(=O)C(NC(=O)C(=NOC(CC(=O)[O-])C(=O)[O-])c3csc(N)n3)C2SC1.[Na+].[Na+] (stereo not shown) [Compound I-92]									Minimum Inhibitory Concentration (MIC) P. aeruginosa SR24 (P. aeruginosa SR24): 0.25 µg/mL; Minimum Inhibitory Concentration (MIC) A. baumannii SR27323 (A. baumannii SR27323): 0.5 µg/mL; Minimum Inhibitory Concentration (MIC) E. coli ATCC BAA-199 (E. coli ATCCBAA-199): 0.063 µg/mL; Minimum Inhibitory Concentration (MIC) E. coli ATCC BAA-200 (E. coli ATCCBAA-200 [1]): 0.125 µg/mL; Minimum Inhibitory Concentration (MIC) K. pneumoniae ATCCBAA-1705 [2]: ≦0.031 μg/ml; Minimum Inhibitory Concentration (MIC) P. aeruginosa SR24837 (P. aeruginosa SR24837): 0.25 µg/mL; Minimum Inhibitory Concentration (MIC) P. aeruginosa SR27060 (P. aeruginosa SR27060): 2 µg/mL
Nc1nc(/C(=N/O[C@@H](CC(=O)O)C(=O)[O-])C(=O)N[C@@H]2C(=O)N3C(c4nnn[nH]4)=C(C[N+]4(CCNC(=O)c5cc(O)c(O)c(F)c5)CCCC4)CS[C@H]23)c(Cl)s1 [Compound I-100]	0.25 (≈ 0.303 µM)	0.25 (≈ 0.303 µM)	≤ 0.031	0.063 (≈ 0.0764 µM)	≤ 0.031	0.125 (≈ 0.152 µM)	2 (≈ 2.43 µM)	2 (≈ 2.43 µM)	
CC(C)(O/N=C(\C(=O)N[C@@H]1C(=O)N2C(c3nnn[nH]3)=C(C[N+]3(CCNC(=O)c4ccc(O)c(O)c4F)CCCC3)CS[C@H]12)c1nsc(N)n1)C(=O)[O-] [Compound I-107]	0.5 (≈ 0.657 µM)	0.063 (≈ 0.0828 µM)	0.25 (≈ 0.329 µM)	0.5 (≈ 0.657 µM)	0.063 (≈ 0.0828 µM)	0.125 (≈ 0.164 µM)	2 (≈ 2.63 µM)	2 (≈ 2.63 µM)	
Nc1nc(/C(=N/OC(C(=O)[O-])C(=O)[O-])C(=O)N[C@@H]2C(=O)N3C(C(=O)[O-])=C(C[N+]45CCC(CNC(=O)c6ccc(O)c(O)c6Cl)(CC4)CC5)CS[C@H]23)cs1.[Na+].[Na+] (stereo partly shown) [Comparative Compound 2, reference compound]	> 32	0.5	0.5	1	> 32	0.5	32	4	
CC(C)(O/N=C(\C(=O)N[C@@H]1C(=O)N2C(c3nnn[n-]3)=C(C[n+]3ccc(CNC(=O)c4ccc(O)c(O)c4Cl)cc3)CS[C@H]12)c1nc(N)sc1Cl)C(=O)[O-].[Na+] [Compound I-31]	0.5	0.125	0.063	0.25	≤ 0.031	0.125	1	1	
CC(C)(O/N=C(\C(=O)N[C@@H]1C(=O)N2C(c3nnn[nH]3)=C(C[N+]3(C)[C@@H]4CC[C@H]3C[C@@H](NC(=O)c3cc(O)c(O)c(F)c3)C4)CS[C@H]12)c1nsc(N)n1)C(=O)O.[Na+] (stereo partly shown) [Compound I-117]	0.5	0.5	1	1	0.063	0.25	4	2	
Nc1nc(C(=NOC(CC(=O)[O-])C(=O)[O-])C(=O)NC2C(=O)N3C(c4nnn[n-]4)=C(C[N+]45CCC(CNC(=O)c6ccc(O)c(O)c6Cl)(CC4)CC5)CSC23)c(Cl)s1.[Na+].[Na+] (stereo not shown) [Compound I-94]									Minimum Inhibitory Concentration (MIC) A. baumannii SR01331 (A. baumannii SR01331): 0.5 µg/mL; Minimum Inhibitory Concentration (MIC) E. cloacae NCTC 13464 (E. cloacae NCTC13464): 0.5 µg/mL; Minimum Inhibitory Concentration (MIC) E. coli ATCC BAA-196 (E. coli ATCCBAA-196): 0.063 µg/mL; Minimum Inhibitory Concentration (MIC) E. coli ATCC BAA-200 (E. coli ATCCBAA-200 [3]): 0.5 µg/mL; Minimum Inhibitory Concentration (MIC) E. coli SR01337 (E. coli SR01337): 0.063 µg/mL; Minimum Inhibitory Concentration (MIC) K. pneumoniae ATCC 700603 (K. pneumoniae ATCC700603): 0.5 µg/mL; Minimum Inhibitory Concentration (MIC) P. aeruginosa SR01332 (P. aeruginosa SR01332): 2 µg/mL; Minimum Inhibitory Concentration (MIC) P. aeruginosa SR01335 (P. aeruginosa SR01335): 1 µg/mL
CC(C)(O/N=C(\C(=O)N[C@@H]1C(=O)N2C(c3nnn[nH]3)=C(C[n+]3cccc4c3CCCN4C(=O)c3ccc(O)c(O)c3Cl)CS[C@H]12)c1nsc(N)n1)C(=O)O.[Na+] [Compound I-115]	0.5	1	1	1	≤ 0.031	0.5	2	1	
Nc1nc(/C(=N/O[C@@H](CC(=O)[O-])C(=O)[O-])C(=O)N[C@@H]2C(=O)N3C(c4nnn[n-]4)=C(C[N+]4(CCNC(=O)c5cc(Cl)c(O)c(O)c5Cl)CCCC4)CS[C@H]23)cs1.[Na+].[Na+] [Compound I-60]	0.5	0.063	≤ 0.031	0.063	≤ 0.031	≤ 0.031	4	1	
CC(C)(O/N=C(\C(=O)N[C@@H]1C(=O)N2C(c3nnn[nH]3)=C(C[N+]3(CCNC(=O)c4cc(O)c(O)c(F)c4)CCCC3)CS[C@H]12)c1nsc(N)n1)C(=O)[O-] [Compound I-108]	1 (≈ 1.31 µM)	0.125 (≈ 0.164 µM)	0.25 (≈ 0.329 µM)	0.25 (≈ 0.329 µM)	≤ 0.031	0.25 (≈ 0.329 µM)	2 (≈ 2.63 µM)	2 (≈ 2.63 µM)	
